The NIST ThermoML archive (doi:10.1016/j.jct.2018.08.015)
± gives the expanded uncertainty stated by the source.

Details: Liquid; for mass density: 298.15 K, 101.33 kPa, Vibrating tube method; for vapor or sublimation pressure: Ebulliometric method (Recirculating still)

C=C1CC/C=C(\C)CC[C@@H]2[C@@H]1CC2(C)C
Details | mass density [kg/m3] | vapor or sublimation pressure [kPa]
– | 896.8 ± 2 | –
370.33 K | – | 0.51 ± 0.4
380.5 K | – | 0.84 ± 0.4
395.45 K | – | 1.63 ± 0.41
420.02 K | – | 4.31 ± 0.44
435.58 K | – | 7.51 ± 0.52
454.18 K | – | 13.85 ± 0.62
464.9 K | – | 19.18 ± 0.78
474.02 K | – | 24.96 ± 0.91
480.05 K | – | 29.55 ± 1.1
491.45 K | – | 40.33 ± 1.4
502.53 K | – | 53.62 ± 1.7
512.49 K | – | 68.83 ± 2.1
522.97 K | – | 88.4 ± 2.4
528.78 K | – | 101.33 ± 2.7

CC1=CCC2C(C1)C2(C)C (centres undefined) [3,7,7-trimethylbicyclo[4.1.0]hept-3-ene]
Details | mass density [kg/m3] | vapor or sublimation pressure [kPa]
– | 863.8 ± 2 | –
356.07 K | – | 5.32 ± 0.64
378.03 K | – | 14.5 ± 0.68
388.7 K | – | 20.46 ± 0.8
391.9 K | – | 22.59 ± 1
396.66 K | – | 26.61 ± 1.1
405.49 K | – | 34.54 ± 1.3
412.42 K | – | 42.81 ± 1.5
416.18 K | – | 47.76 ± 1.8
424.04 K | – | 59.53 ± 1.9
426.24 K | – | 63.19 ± 2.1
430.64 K | – | 70.97 ± 2.2
433.68 K | – | 76.91 ± 2.4
436.32 K | – | 82.05 ± 2.7
439.47 K | – | 89.96 ± 2.8
442.61 K | – | 96.43 ± 2.8
444.44 K | – | 101.33 ± 3.2

Cc1ccc(C(C)C)cc1 [1-(1-methylethyl)-4-methylbenzene]
Details | mass density [kg/m3] | vapor or sublimation pressure [kPa]
– | 853.2 ± 2 | –
450.28 K | – | 101.33 ± 6.1
